# In patent publication US20050148495A1, “Methods and materials including for treating acne” (priority 2003, published 2005):
# Like-named read-outs stand apart in the source and are kept apart here. Non-standard residues stand in square brackets, D forms with d. Residues, ends and D or L forms follow the SMILES beside them. d1Nal = N[C@H](Cc1cccc2ccccc12)C(=O)O
# How the values were obtained:
# P. granulosum = format: cell-based, Propionibacterium granulosum
# Method: This example addresses studies relating to the antimicrobial activities of XMP.629. An in vitro assessment of antibiotic activity in XMP.629 and various known antibiotics against a representative panel of bacterial strains associated with acne was conducted. A broth dilution methodology was employed using guidelines established by National Committee for Clinical Laboratory Standards (NCCLS) for anaerobic organisms to establish an antibacterial profile for XMP.629. Assays to determine the minimal bactericidal concentrations (MBC) and minimal inhibitory concentration (MIC) were conducted for XMP.629 and other known antibiotics. Furthermore, test to determine post antibiotic effect (PAE) of XMP.629 were done.
# Inoculum from a representative panel of bacterial strains associated with acne, such as P. acnes, P. avidum, P. granulosum, and Staphylococcus epidermis was prepared by suspending approximately 5-10 isolated bacterial colonies in pre-reduced MicroScan® Inoculum Water (Dade Behring, Deerfield, Ill.), and growing the bacterial suspension to log phase (approximately 48 hrs). An inoculum of between 1-5×10^6/mL was achieved by adding 100 μL of the suspension to 25 mL Brain Heart Infusion Broth (BHI) (Anaerobe Systems, Morgan Hill, Calif.).
# A stock solution of XMP.629 dissolved in water at a concentration of 4.0 mg/mL was prepared. Dilute solutions of XMP.629 at concentrations ranging from about 1.25 to about 160 μg/mL were made in either water or formulation buffer (130 mM sodium chloride, 0.2% P103 (poloxamer 333), and 0.10% EDTA, pH 7.3). Aqueous stock solutions of clindamycin and erythromycin were prepared in water.
# Each tube, containing a final volume of 1 mL, was mixed by vortexing. Control tubes containing only water or formulation buffer were prepared for each isolate. Initial growth controls were determined by removing 10 μL from the water control tube and diluting it by 100 fold. From this dilution, 10 μL was used for inoculation and for spreading over the surface onto Laked Blood Agar (LBA) (Anaerobe Systems, Morgan Hill, Calif.) plates. The tubes and plates were incubated in an anaerobic atmosphere at 37° C. for 48 h. After incubation, the tubes were mixed and 10 μL samples were removed from each tube for additional plating. These plates were then further incubated in an anaerobic atmosphere at 37° C. for 48-72 h and the resulting colonies were counted. After adjusting for the dilution factor, the lowest concentration of drug or combination of drugs reducing the inoculum by ≧99.9% was considered to be the minimum bactericidal concentration (MBC). MBC50 and 90 values represent where 50 and 90%, respectively, of the tested strain's MBC values are equal to or less than the indicated concentration. The lowest concentration of antibiotic(s) that inhibited visible growth in the culture tubes was considered to be the minimal inhibitory concentration (MIC).
# For comparison, additional Propionibacterium strains, were tested.
# Corynebacterium = assay: microbe, parasite or virus in culture; format: cell-based
# Method: (§1) Control tubes containing only water or formulation buffer were prepared for each isolate. Initial growth controls were determined by removing 10 μL from the water control tube and diluting it by 100 fold. From this dilution, 10 μL was used for inoculation and for spreading over the surface onto Laked Blood Agar (LBA) (Anaerobe Systems, Morgan Hill, Calif.) plates. The tubes and plates were incubated in an anaerobic atmosphere at 37° C. for 48 h. […] MBC50 and 90 values represent where 50 and 90%, respectively, of the tested strain's MBC values are equal to or less than the indicated concentration.
# Candida = format: cell-based
# Method: as §1
# Hanford minipigs = assay: Minipig subchronic dermal toxicity test with toxicokinetics; format: in vivo; conditions: one 70 μg/kg/day female
# Method: XMP.629 was evaluated for potential toxicity when administered by a single daily dermal application to Hanford minipigs over the course of one month. The study group design and dosage levels tested were as follows:
# The test article or placebo control was administered once daily to the dorsal surface of each animal for 29 consecutive days. General health, mortality and moribundity checks were conducted twice daily. General health examinations were performed by a veterinarian once prior to in-life initiation and weekly during the study. The animals were examined daily for overt toxic signs (post-dose observations) between one and two hours following dosing. Detailed clinical observations and individual body weights were performed weekly, beginning on study day 0, and on the day of scheduled euthanasia. Dermal scoring was performed once per week and on the day of scheduled euthanasia.
# Hematology, coagulation and clinical chemistry parameters were evaluated once prior to in-life initiation (day -9) and near the conclusion of the dosing phase (day 26). Blood samples were also collected for anti-test article analyses on study day 26 and toxicokinetic (TK) analyses on study days 0 and 27. Ophthalmological examinations were performed once prior to in-life initiation and just prior to the end of the dosing phase. […]
# Streptococcus sobrinus = Streptococcus sobrinus 27607
# [1] = parameters: decrease of plasma levels within the first 12 hours: dose or concentration left out as unconfirmed; conditions: for T1/2α / T1/2β / T1/2γ / T1/4 average / Vc: Sinclair mini-pig
# in vivo = conditions: both, Sprague-Dawley, rat, plasma, 0.2 mg/kg
# Method: Using non-radiolabeled XMP.629, a pharmacokinetic study was conducted in an analogous manner as described above for ^3H-XMP.629. However, in this study, a 0.05 or a 0.2 mg/kg intravenous dose of XMP.629 was administered to 2 males and 2 females rats. Blood samples were collected for 168 hours following dosing and plasma XMP.629 concentrations were measured using liquid chromatography/mass spectrometry (LC/MS).
# [2] = RMA 5740, Formulation Buffer Solvent, Study 1
# [3] = RMA 5740, Formulation Buffer Solvent, Study 2
# [4] = RMA 5740, Water Solvent, Study 1
# [5] = RMA 5740, Water Solvent, Study 2
# [6] = RMA 6867, Formulation Buffer Solvent, Study 1
# [7] = RMA 6867, Formulation Buffer Solvent, Study 2
# [8] = RMA 6867, Water Solvent, Study 1
# [9] = RMA 6867, Water Solvent, Study 2
# [10] = RMA 7093, Formulation Buffer Solvent, Study 1
# [11] = RMA 7093, Formulation Buffer Solvent, Study 2
# [12] = RMA 7093, Water Solvent, Study 1
# [13] = RMA 7093, Water Solvent, Study 2
# [14] = RMA 11787, Formulation Buffer Solvent, Study 1
# [15] = RMA 11787, Formulation Buffer Solvent, Study 2
# [16] = RMA 11787, Water Solvent, Study 1
# [17] = RMA 11787, Water Solvent, Study 2
# [18] = 0.05 mg/kg XMP.629 acetate short IV infusion
# [19] = 0.2 mg/kg XMP.629 acetate short IV infusion
structure (smiles),measurement,setting,value
"CC(C)C[C@@H](NC(=O)[C@H](N)CCCCN)C(=O)N[C@H](Cc1ccccc1)C(=O)N[C@H](CCCNC(=N)N)C(=O)N[C@H](Cc1cccc2ccccc12)C(=O)N[C@H](CCC(N)=O)C(=O)N[C@H](C)C(=O)N[C@H](CCCCN)C(=O)N[C@H](Cc1cccc2ccccc12)C(N)=O [XMP.629, NH2-lys-leu-phe-arg-(3-(1-naphthyl)-ala)-gln-ala-lys-(3-(1-naphthyl)-ala)-CONH2] (H-[dK][dL][dF][dR][d1Nal][dQ][dA][dK][d1Nal]-NH2)",MBC50,"P. granulosum; P. granulosum, 4 strains",0.25 µg/mL
same,MBC90,"P. granulosum; P. granulosum, 4 strains",4 µg/mL
same,MBC Range,"P. granulosum; P. granulosum, 4 strains, in µg/mL",0.25-4
same,MBC,P. granulosum; [2],2 µg/mL
same,MIC,P. granulosum; [2],1 µg/mL
same,MBC,P. granulosum; [3],0.25 µg/mL
same,MIC,P. granulosum; [3],0.25 µg/mL
same,MBC,P. granulosum; [4],4 µg/mL
same,MIC,P. granulosum; [4],2 µg/mL
same,MBC,P. granulosum; [5],1 µg/mL
same,MIC,P. granulosum; [5],1 µg/mL
same,MBC,P. granulosum; [6],2 µg/mL
same,MIC,P. granulosum; [6],0.5 µg/mL
same,MBC,P. granulosum; [7],4 µg/mL
same,MIC,P. granulosum; [7],4 µg/mL
same,MBC,P. granulosum; [8],2 µg/mL
same,MIC,P. granulosum; [8],1 µg/mL
same,MBC,P. granulosum; [9],4 µg/mL
same,MIC,P. granulosum; [9],4 µg/mL
same,MBC,P. granulosum; [10],2 µg/mL
same,MIC,P. granulosum; [10],1 µg/mL
same,MBC,P. granulosum; [11],0.25 µg/mL
same,MIC,P. granulosum; [11],0.25 µg/mL
same,MBC,P. granulosum; [12],2 µg/mL
same,MIC,P. granulosum; [12],2 µg/mL
same,MBC,P. granulosum; [13],0.5 µg/mL
same,MIC,P. granulosum; [13],1 µg/mL
same,MBC,P. granulosum; [14],2 µg/mL
same,MIC,P. granulosum; [14],2 µg/mL
same,MBC,P. granulosum; [15],0.25 µg/mL
same,MIC,P. granulosum; [15],0.25 µg/mL
same,MBC,P. granulosum; [16],2 µg/mL
same,MIC,P. granulosum; [16],2 µg/mL
same,MBC,P. granulosum; [17],1 µg/mL
same,MIC,P. granulosum; [17],1 µg/mL
same,"MIC90, XMP.629 data reported as MBC values",Corynebacterium,0.25 µg/mL
same,"MIC90, XMP.629 data reported as MBC values",Corynebacterium; in FB (formulation buffer),<0.25 µg/mL
same,"MIC90, XMP.629 data reported as MBC values",Candida,1 µg/mL
same,"MIC90, XMP.629 data reported as MBC values",Candida; in FB (formulation buffer),0.5 µg/mL
same,Dermal observations,Hanford minipigs,single incidence of grade 2 (well defined) erythema
same,Minimum Inhibitory Concentrations,Streptococcus sobrinus,2.00 µg/mL
same,T1/2α,[1]; [18],5.46 min
same,T1/2β,[1]; [18],76.8 min
same,T1/2γ,[1]; [18],900 min
same,T1/4 average,[1]; [18],0.36 h
same,Vc,[1]; [18],0.0674 L/kg
same,T1/2α,[1]; [19],1.86 min
same,T1/2β,[1]; [19],61.8 min
same,T1/2γ,[1]; [19],924 min
same,T1/4 average,[1]; [19],0.58 h
same,Vc,[1]; [19],0.1018 L/kg
same,decrease of plasma levels within the first 12 hours,[1]; short IV infusion,100 fold
same,clearance,in vivo; intravenous,~5.33 mL/min/kg
same,half-life,"in vivo; intravenous, alpha half-life, two compartment model",~20 min
same,half-life,"in vivo; intravenous, terminal half-life, two compartment model",~960 min
same,AUC,in vivo; iv,744 ng·h/mL
same,clearance,in vivo; iv,5.32 mL/min/kg
same,Vd,"in vivo; iv, Vc (volume of distribution of the central compartment), non-labeled XMP.629, 0.2 mg/kg intravenous, LC/MS, two compartment model, mean",0.202 L/kg
same,Vd,"in vivo; iv, Vss (volume of distribution at steady state), non-labeled XMP.629, 0.2 mg/kg intravenous, mean",2.25 L/kg
same,half-life,"in vivo; iv, t1/2 (average half-life), non-labeled XMP.629, 0.2 mg/kg intravenous, mean",26.4 min
same,half-life,"in vivo; iv, t1/2 α (α half-life), non-labeled XMP.629, 0.2 mg/kg intravenous, mean",21.2 min
same,half-life,"in vivo; iv, t1/2 β (β half-life), non-labeled XMP.629, 0.2 mg/kg intravenous, mean",972 min
